Measured values as given in patent US20240261417A1, “SOS1 DEGRADING AGENT AND PREPARATION METHOD THEREFOR AND APPLICATION THEREOF” (SHANGHAI LEADINGTAC PHARMACEUTICAL CO. LTD., priority 2021, published 2024).

What was measured:
Type in all cases: cell-based
SOS1 protein [1] = target: T1, SOS1 protein (Homo sapiens, UniProt Q07889); experiment: SOS1 degradation assay (Western blot), NCI-H358 cells; parameters: The degradation of SOS1 by the compounds was investigated on KRAS G12C mutant human non-small cell lung cancer cells NCI-H358; host or cells: NCI-H358 (human cancer cell lines); conditions: SOS1 degradation, NCI-H358 cells, 24 h, Western blot; for DC50: read-out: NCI-H358 (G12C) DC50; for Dmax: read-out: NCI-H358 (G12C) Dmax
T1 sequence (Q07889 1-1333): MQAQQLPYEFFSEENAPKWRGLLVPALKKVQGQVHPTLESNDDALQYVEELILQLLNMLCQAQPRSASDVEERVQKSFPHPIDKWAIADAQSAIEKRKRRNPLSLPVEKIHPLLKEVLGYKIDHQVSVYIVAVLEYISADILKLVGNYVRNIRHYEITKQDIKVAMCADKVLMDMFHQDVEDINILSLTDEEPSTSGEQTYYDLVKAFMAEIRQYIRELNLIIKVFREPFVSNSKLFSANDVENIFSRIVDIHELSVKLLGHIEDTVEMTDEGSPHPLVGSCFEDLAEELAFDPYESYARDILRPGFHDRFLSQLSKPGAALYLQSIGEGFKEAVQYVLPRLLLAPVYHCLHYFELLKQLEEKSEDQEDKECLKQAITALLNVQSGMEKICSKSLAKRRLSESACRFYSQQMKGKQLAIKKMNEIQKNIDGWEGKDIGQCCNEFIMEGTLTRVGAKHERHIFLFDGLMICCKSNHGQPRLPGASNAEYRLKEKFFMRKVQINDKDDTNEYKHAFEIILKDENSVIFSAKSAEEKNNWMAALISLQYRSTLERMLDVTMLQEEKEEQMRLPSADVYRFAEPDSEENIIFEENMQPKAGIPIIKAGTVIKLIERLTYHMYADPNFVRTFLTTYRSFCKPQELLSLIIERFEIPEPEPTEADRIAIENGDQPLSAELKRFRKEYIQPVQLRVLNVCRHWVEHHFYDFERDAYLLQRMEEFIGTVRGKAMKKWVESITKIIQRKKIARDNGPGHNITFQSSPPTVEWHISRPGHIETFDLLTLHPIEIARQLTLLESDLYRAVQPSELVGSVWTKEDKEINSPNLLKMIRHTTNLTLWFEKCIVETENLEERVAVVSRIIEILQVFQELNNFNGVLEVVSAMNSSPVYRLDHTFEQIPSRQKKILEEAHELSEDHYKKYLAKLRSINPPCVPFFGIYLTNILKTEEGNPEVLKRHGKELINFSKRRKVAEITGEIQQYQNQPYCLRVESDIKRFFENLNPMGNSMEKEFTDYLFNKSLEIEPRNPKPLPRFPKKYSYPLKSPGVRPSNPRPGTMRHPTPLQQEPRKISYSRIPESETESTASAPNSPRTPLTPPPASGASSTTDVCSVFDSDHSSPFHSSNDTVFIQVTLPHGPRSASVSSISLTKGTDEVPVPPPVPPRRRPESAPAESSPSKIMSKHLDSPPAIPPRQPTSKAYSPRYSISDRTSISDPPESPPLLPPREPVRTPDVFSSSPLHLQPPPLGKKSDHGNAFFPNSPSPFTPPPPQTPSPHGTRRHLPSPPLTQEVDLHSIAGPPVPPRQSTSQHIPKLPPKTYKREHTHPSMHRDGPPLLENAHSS
Outline: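 Cells at 5×10^5 per well were treated for 24 h at 37 °C with compound at 0.03–3000 nM final. SOS1 in lysates was measured by Western blot with chemiluminescent densitometry and normalised to the control group. DC50 and Dmax came from nonlinear fits against log concentration.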

SOS1 protein [2] = target: T1, SOS1 protein; experiment: SOS1 degradation assay (Western blot), DLD-1 cells; parameters: host or cells: DLD-1 (human cancer cell lines); conditions: 24 h; for DC50: read-out: DLD-1 (G13D) DC50; for Dmax: read-out: DLD-1 (G13D) Dmax
Protocol: (§1) The specific procedures were as follows:
(§2) 0.95 mL of cells were seeded into each well of a 24-well cell culture plate to achieve a cell density of 5×10^5 cells/well; the cell plate was incubated in an incubator at 37° C. with 5% CO2 overnight. Then 50 μL of the compound solution after dilution was added to each of the wells with the corresponding cells, so that the final concentration of the compound was in a range of 0.03-3000 nM. […] After dosing, the cell plate was incubated in an incubator at 37° C. with 5% CO2 for 24 h. […] After the plate was left to stand on ice for 30 min, the protein lysate in each well was transferred to a 1.5 mL centrifuge tube and centrifuged at 15000 g for 20 min at 4° C. The cell lysate supernatant after centrifugation was cryopreserved at −80° C. for testing and was used for determining the degradation level of the SOS1 protein by a WB method. The concentration of total protein in the cell lysate supernatant was determined using the BCA Protein Quantification Kit (Tiangen, PA115-02).
(§3) The concentration of total protein in the cell lysate was determined by BCA. The total protein was adjusted to 0.5 μg/μL with PBS and 5× SDS-PAGE protein loading buffer (Beyotime, P0015L), incubated in a water bath at 100° C. for 15 min, incubated in an ice bath on ice for 5 min, centrifuged at 14000 g for 1 min at 4° C., and mixed well as a loading sample for WB. Protein electrophoresis was performed on a precast gel (KeyGEN, KGMGO10W15) with a loading volume of 10 μL (total protein: 5 μg) using a Tris-MOPS-SDS running solution (Adamas, P1598253) at a constant voltage of 120 V for 55 min. After the electrophoresis, the protein on the gel strip was transferred to a PVDF membrane at a constant current of 250 mA for 65 min. After the membrane transfer, the membrane was incubated in 1× QuickBlock blocking buffer (Beyotime, P0235) for 30 min at room temperature. […] The protein map was subjected to gray value analysis by the chemiluminescence imaging system from Clinx. […] Then the degradation rate was calculated by comparing the gray correction value with the gray correction value of the control group. Then nonlinear curve fitting was performed by GraphPad Prism 8 in the logarithmic concentration-inhibition rate to obtain the DC50 and Dmax values of the compounds.

SOS1 protein [3] = target: T1, SOS1 protein; experiment: SOS1 degradation assay (Western blot), SW-620 cells; parameters: host or cells: SW-620 (human cancer cell lines); conditions: 24 h; for DC50: read-out: SW620 (G12V) DC50; for Dmax: read-out: SW620 (G12V) Dmax
Protocol: as §1, §2, §3

| DC50 (SOS1 protein [1]) [nM] | Dmax (SOS1 protein [1]) [%] | DC50 (SOS1 protein [2]) [nM] | Dmax (SOS1 protein [2]) [%] | DC50 (SOS1 protein [3]) [nM] | Dmax (SOS1 protein [3]) [%] | SMILES |
| --- | --- | --- | --- | --- | --- | --- |
| < 50 | 80 to 100 | < 50 | 80 to 100 | < 50 | 80 to 100 | COc1cc2nc(C)nc(N[C@H](C)c3cc(N)cc(C(F)(F)F)c3)c2cc1[C@H]1CC[C@H](C(=O)N2CCN(CCC3CCC4(CC3)CCN(C(=O)c3ccc(Cl)c(N5CCC(=O)NC5=O)c3)CC4)CC2)CC1 [Example 1, 1-(5-(9-(2-(4-((1R,4R)-4-(4-(((R)-1-(3-amino-5-(trifluoromethyl)phenyl)ethyl)amino)-7-methoxy-2-methylquinazolin-6-yl)cyclohexane-1-carbonyl)piperazin-1-yl)ethyl)-3-azaspiro[5.5]undecane-3-carbonyl)-2-chlorophenyl)dihydropyrimidine-2,4(1H,3H)-dione] |
| 100 to 500 | 50 to 80 | 50 to 100 | 80 to 100 | < 50 | 80 to 100 | COc1cc2nc(C)nc(N[C@H](C)c3cc(N)cc(C(F)(F)F)c3)c2cc1[C@H]1CC[C@H](C(=O)N2CCC(CCOCC3CCN(C(=O)c4ccc(Cl)c(N5CCC(=O)NC5=O)c4)CC3)CC2)CC1 [Example 19, 1-(5-(4-((2-(1-((1R,4R)-4-(4-(((R)-1-(3-amino-5-(trifluoromethyl)phenyl)ethyl)amino)-7-methoxy-2-methylquinazolin-6-yl)cyclohexane-1-carbonyl)piperidin-4-yl)ethoxy)methyl)piperidine-1-carbonyl)-2-chlorophenyl)dihydropyrimidine-2,4(1H,3H)-dione] |
| < 50 | 80 to 100 | 50 to 100 | 80 to 100 | < 50 | 80 to 100 | CNCc1ccccc1-c1csc([C@@H](C)Nc2nc(C)nc3cc(OC)c([C@H]4CC[C@H](C(=O)N5CCN(CC6CCC7(CC6)CCN(C(=O)c6ccc(OC)c(N8CCC(=O)NC8=O)c6)CC7)CC5)CC4)cc23)c1 [Example 73, 1-(2-methoxy-5-(9-((4-((1R,4R)-4-(7-methoxy-2-methyl-4-(((R)-1-(4-(2-((methylamino)methyl)phenyl)thien-2-yl)ethyl)amino)quinazolin-6-yl)cyclohexane-1-carbonyl)piperazin-1-yl)methyl)-3-azaspiro[5.5]undecane-3-carbonyl)phenyl)dihydropyrimidine-2,4(1H,3H)-dione] |
| < 50 | 80 to 100 | 100 to 500 | 80 to 100 | < 50 | 80 to 100 | COc1cc2nc(C)nc(N[C@H](C)c3cc(N)cc(C(F)(F)F)c3)c2cc1[C@H]1CC[C@H](C(=O)N2CCN(CCOCC3CCN(C(=O)c4ccc(Cl)c(N5CCC(=O)NC5=O)c4)CC3)CC2)CC1 [Example 33, 1-(5-(4-((2-(4-((1R,4R)-4-(4-(((R)-1-(3-amino-5-(trifluoromethyl)phenyl)ethyl)amino)-7-methoxy-2-methylquinazolin-6-yl)cyclohexane-1-carbonyl)piperazin-1-yl)ethoxy)methyl)piperidine-1-carbonyl)-2-chlorophenyl)dihydropyrimidine-2,4(1H,3H)-dione] |
| < 50 | 80 to 100 | < 50 | 80 to 100 | < 50 | 80 to 100 | COc1cc2nc(C)nc(N[C@H](C)c3cc(N)cc(C(F)(F)F)c3)c2cc1[C@H]1CC[C@H](C(=O)N2CCN(CC3CCC4(CC3)CCN(C(=O)c3ccc(Cl)c(N5CCC(=O)NC5=O)c3)CC4)CC2)CC1 [Example 2, 1-(5-(9-((4-((1R,4R)-4-(4-(((R)-1-(3-amino-5-(trifluoromethyl)phenyl)ethyl)amino)-7-methoxy-2-methylquinazolin-6-yl)cyclohexane-1-carbonyl)piperazin-1-yl)methyl)-3-azaspiro[5.5]undecane-3-carbonyl)-2-chlorophenyl)dihydropyrimidine-2,4(1H,3H)-dione] |
| < 50 | 50 to 80 | < 50 | 80 to 100 | < 50 | 80 to 100 | COc1cc2nc(C)nc(N[C@H](C)c3cccc4c3CCS4(=O)=O)c2cc1[C@H]1CC[C@H](C(=O)N2CCN(CC3CCC4(CC3)CCN(C(=O)c3ccc(Cl)c(N5CCC(=O)NC5=O)c3)CC4)CC2)CC1 [Example 10, 1-(2-chloro-5-(9-((4-((1R,4R)-4-(4-(((R)-1-(1,1-dioxo-2,3-dihydrobenzo[b]thiophen-4-yl)ethyl)amino)-7-methoxy-2-methylquinazolin-6-yl)cyclohexane-1-carbonyl)piperazin-1-yl)methyl)-3-azaspiro[5.5]undecane-3-carbonyl)phenyl)dihydropyrimidine-2,4(1H,3H)-dione] |
